Experimental data taken from publication PMC12152147, “DDB1 engagement defines the selectivity of S656 analogs for cyclin K degradation over CDK inhibition” (EMBO Reports, 2025).
Values after ≈ are worked out from the molar mass of the structure shown. Values joined by “and” are separate entries in the source; they are usually repeats but may differ in a detail not shown here. Equal values may be shown once. Read-outs that look alike come from different tables or passages of the source.

Assays:
[1] = system: cyclin K, CDK12, RNA polymerase II phospho-ser2, MYC, MCL-1 protein levels; assay: Immunoblot analysis of protein levels; format: cell-based, H. sapiens; details: for RNA polymerase II phospho-ser2 level (immunoblot): OCI-AML5, 5 μM for 5 h
Procedure: Total proteins were extracted using RIPA buffer (20 mM Tris-HCl pH 7.4, 150 mM NaCl, 5 mM MgCl2, 5 mM EGTA, 60 mM β-glycerophosphate, 0.1% NP40, 0.1% Triton X-114, 1 mM DTT) supplemented with protease inhibitors (cOmplete, EDTA-free protease inhibitor tablets), and quantified by the bicinchoninic acid (BCA) method using a BSA standard curve. Proteins were resolved by SDS-PAGE, transferred onto PVDF membrane, blocked with 5% milk and probed with primary (overnight, 4 °C) and secondary (1 h, room temperature) antibodies.

[2] = system: OCI-AML5 Cas9 cells (sgDDB1, sgAAVS1); assay: Dose response in inducible OCI-AML5 Cas9 cells expressing sgRNAs targeting DDB1 or AAVS1; format: cell-based, H. sapiens; details: 4 days, read-out: S656 IC50
Procedure: Dose-response assays in primary AML specimens were performed as in chemical screen (see above) with the exception that compounds were tested in serial dilution (8 dilutions, 1:4, 10 μM down to 0.5 nM). Dose-response assays in OCI-AML5 cell line were conducted similarly with the following modifications: 300 cells per well were seeded in 50 μL of cell line media and cell viability was evaluated after 4 days in culture.
Clonal OCI-AML5 cells expressing an inducible Cas9 (Addgene plasmid #50661 (Wang et al, [2014])) were generated and then infected with lentiviruses for constitutive expression of sgRNAs targeting AAVS1 control region (Addgene plasmid #50662 (Wang et al, [2014])) or DDB1 #1 ([…]); #2 ([…]). Cas9 expression is induced by doxycycline (2 μg/mL) and experiments performed subsequently.

[3] = system: OCI-AML5 cells proteome; assay: Whole-proteome mass spectrometry analysis; format: cell-based, H. sapiens; details: OCI-AML5, 5 hours, 8 μM S656
Procedure: Whole proteome was performed as previously described (Moison et al, [2024]). We treated 10 million OCI-AML5 cells in triplicate with DMSO or 8 μM S656 for 5 h. Collected cells were washed in PBS and cell pellets lysed in Triton X-100 buffer (10 mM PIPES pH 7.4, 0.5% Triton X-100, 300 mM Sucrose, 100 mM NaCl, 3 mM MgCl2, 0.5 mM EDTA + protease inhibitors). Following MS analysis, the data were processed using PEAKS X Pro (Bioinformatics Solutions, Waterloo, ON) and a Uniprot human database (20366 entries) with trypsin as the enzyme. Differential Enrichment analysis of Proteomics data (DEP) package (Zhang et al, [2018]) in R was used to analyze the data (excluding proteins identified based on a single peptide), including data filtering, normalization, imputation of missing values and statistical testing of differentially expressed proteins.

[4] = biological target: T1, CDK12-DDB1 interaction (Homo sapiens, UniProt Q16531+Q9NYV4); assay: NanoLuc Binary Technology CDK12-DDB1 interaction in HEK293 cells; format: cell-based, H. sapiens; details: HEK293, monitored over 1 h
T1 construct: The kinase domain of CDK12 was fused to the Large BiT (LgBiT); expressed in transfected cells; host or cells: HEK293
T1 sequence (Q9NYV4 727-1020 limits assumed): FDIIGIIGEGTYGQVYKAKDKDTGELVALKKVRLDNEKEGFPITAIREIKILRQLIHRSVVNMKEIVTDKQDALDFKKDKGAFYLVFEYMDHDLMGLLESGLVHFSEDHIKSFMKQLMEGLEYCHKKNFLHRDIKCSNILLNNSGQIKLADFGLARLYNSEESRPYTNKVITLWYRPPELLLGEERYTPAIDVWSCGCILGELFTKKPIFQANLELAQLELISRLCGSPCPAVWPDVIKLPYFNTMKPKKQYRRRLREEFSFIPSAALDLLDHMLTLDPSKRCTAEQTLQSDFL
T1 sequence (Q16531 whole entry, the tested form may be a part): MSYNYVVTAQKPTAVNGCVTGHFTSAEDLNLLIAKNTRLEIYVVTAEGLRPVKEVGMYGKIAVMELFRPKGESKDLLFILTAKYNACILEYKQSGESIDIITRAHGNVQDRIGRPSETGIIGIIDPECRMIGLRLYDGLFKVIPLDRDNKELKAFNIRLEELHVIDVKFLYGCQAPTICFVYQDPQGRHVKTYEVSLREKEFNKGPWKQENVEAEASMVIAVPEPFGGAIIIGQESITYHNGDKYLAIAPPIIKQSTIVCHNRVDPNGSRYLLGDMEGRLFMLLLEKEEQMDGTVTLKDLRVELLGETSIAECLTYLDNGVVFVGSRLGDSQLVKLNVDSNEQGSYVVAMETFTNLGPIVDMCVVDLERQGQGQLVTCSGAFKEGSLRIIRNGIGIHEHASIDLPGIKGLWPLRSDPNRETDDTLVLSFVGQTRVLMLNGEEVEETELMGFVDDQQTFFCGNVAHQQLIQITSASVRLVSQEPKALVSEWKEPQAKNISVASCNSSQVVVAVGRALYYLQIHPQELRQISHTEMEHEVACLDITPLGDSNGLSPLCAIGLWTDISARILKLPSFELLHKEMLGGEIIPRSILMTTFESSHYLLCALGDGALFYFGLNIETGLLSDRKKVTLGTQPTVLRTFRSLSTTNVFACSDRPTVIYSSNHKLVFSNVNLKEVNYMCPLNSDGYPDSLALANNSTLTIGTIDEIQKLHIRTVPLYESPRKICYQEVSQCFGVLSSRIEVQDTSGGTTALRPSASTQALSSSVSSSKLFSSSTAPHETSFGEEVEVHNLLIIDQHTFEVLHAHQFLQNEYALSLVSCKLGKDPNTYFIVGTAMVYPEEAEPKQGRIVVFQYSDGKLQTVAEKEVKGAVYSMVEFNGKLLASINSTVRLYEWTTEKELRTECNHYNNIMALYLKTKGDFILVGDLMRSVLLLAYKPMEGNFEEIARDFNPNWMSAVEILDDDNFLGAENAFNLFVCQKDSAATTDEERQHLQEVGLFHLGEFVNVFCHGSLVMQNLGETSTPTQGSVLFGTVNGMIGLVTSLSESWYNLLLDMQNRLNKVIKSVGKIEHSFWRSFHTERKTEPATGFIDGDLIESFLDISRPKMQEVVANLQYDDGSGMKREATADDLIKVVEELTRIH
T1 sequence (O75909 whole entry partner, the tested form may be a part): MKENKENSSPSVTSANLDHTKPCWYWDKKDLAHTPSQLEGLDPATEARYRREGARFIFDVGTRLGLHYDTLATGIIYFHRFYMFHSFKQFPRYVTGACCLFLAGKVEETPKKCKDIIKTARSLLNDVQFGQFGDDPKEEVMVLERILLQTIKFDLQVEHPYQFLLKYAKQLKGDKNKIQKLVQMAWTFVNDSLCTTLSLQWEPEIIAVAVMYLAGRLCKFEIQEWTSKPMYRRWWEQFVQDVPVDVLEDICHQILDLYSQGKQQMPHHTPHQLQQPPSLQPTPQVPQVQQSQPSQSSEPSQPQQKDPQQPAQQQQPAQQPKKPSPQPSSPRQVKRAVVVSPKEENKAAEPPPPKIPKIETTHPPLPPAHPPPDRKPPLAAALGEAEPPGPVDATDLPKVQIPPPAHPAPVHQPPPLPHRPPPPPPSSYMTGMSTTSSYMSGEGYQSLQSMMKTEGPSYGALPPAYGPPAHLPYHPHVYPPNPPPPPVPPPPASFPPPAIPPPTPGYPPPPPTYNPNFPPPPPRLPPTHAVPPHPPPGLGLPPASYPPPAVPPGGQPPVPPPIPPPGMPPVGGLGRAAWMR
Description: Using the NanoBiT PPI MCS starter system vectors, we generated fusion proteins of CDK12 and DDB1 to monitor their interaction in living cells through a structural complementation reporter system for the NanoLuc. The kinase domain of CDK12 was fused to the Large BiT (LgBiT) while DDB1 was fused to the Small Bit (SmBiT), both in N-terminal. The primers used to clone CDK12 and DDB1 in NanoBit vectors by Gibson assembly are as follows: N-LgBiT-CDK12KD-F: […]; N-LgBiT-CDK12KD-STOP-R: […]; N-SmBiT-DDB1-F: […]; N-SmBiT-DDB1-GA-R: […].
Both CDK12-LgBiT and DDB1-SmBiT generated plasmids were then transfected in HEK293 cells using JetPrime transfection reagent according to the manufacturer’s instructions and plated 24 h later in white 384-well plate (20,000 cells /well). After 4 h, 5× D-blue substrate was added to each well, incubated for 5 min at obscurity, prior to addition of compounds of interest at increasing concentrations. Luminescence was monitored for 1 h using the Neo Synergy BioTek plate reader.

[5] = Kinetic solubility measurement (HPLC-UV); format: physicochemical; details: aqueous buffer, kinetic from dmso stock, αMEM media, nominal 200 μM, room temperature, triplicate
Procedure: A 40 μL aliquot of a 10 mM DMSO stock solution of S656 was prepared and diluted in αMEM media to achieve a nominal concentration of 200 μM. The samples were incubated with stirring at 1100 rpm for 24 h at room temperature. From the incubation mixture, 20 μL was pipetted, rinsed in acetonitrile (MeCN) for 5 s, then in water for 5 s. Subsequently, 10 μL was discarded, and the remaining 10 μL was transferred to a mixture containing 10 μL of PBS, 980 μL of quenched solution, and 10 μL of DMSO. Analysis was performed using HPLC equipped with a UV-visible detector (HPLC-UV). Chromatography was conducted under reverse-phase conditions with a column temperature of 55 °C on a Waters XSelect HSS T3 column (2.5 μm, 2.1 ×50 mm). The aqueous solvent (solvent A) was ultrapure water with 0.1% formic acid, and the organic eluent (solvent B) was acetonitrile. The injection volume was 4 μL, and the flow rate was set at 0.6 mL/min.

[6] = OCI-AML5, increasing concentrations, 6 h

In the case of `Cc1cccc(Nc2nc(CC(=O)Nc3ncc(C)s3)cs2)n1` [HQ461], the “RNA polymerase II phospho-ser2 level (immunoblot)” value [1] is reported as “reduced levels of RNA polymerase II phospho-ser2” and the “cyclin K protein level (immunoblot)” value [1, 6] is reported as “dose-dependent cyclin K depletion”.
For `CN(C)c1ccc(CC(=O)Nc2ncc(SCc3cccnc3)s2)cc1` [S656], the IC50 ([2]; Homo sapiens, OCI-AML-5, 96 h, sgAAVS + DOX) was 923 nM, the IC50 ([2]; Homo sapiens, OCI-AML-5, 96 h, sgAAVS - DOX) was 896 nM and the IC50 ([2]; Homo sapiens, OCI-AML-5, 96 h, sgDDB1 #1 + DOX) was 2170 nM. For the same compound, the IC50 ([2]; Homo sapiens, OCI-AML-5, 96 h, sgDDB1 #1 - DOX) was 1190 nM, the IC50 ([2]; Homo sapiens, OCI-AML-5, 96 h, sgDDB1 #2 + DOX) was 2440 nM and the IC50 ([2]; Homo sapiens, OCI-AML-5, 96 h, sgDDB1 #2 - DOX) was 936 nM. For the same compound, the IC50 ([2]; sgAAVS + DOX) was 1130 nM and 960 nM, the IC50 ([2]; sgAAVS - DOX) was 945 nM and 735 nM and the IC50 ([2]; sgDDB1 #1 + DOX) was 2090 nM and 1910 nM. The IC50 ([2]; sgDDB1 #1 - DOX) was 1020 nM and 964 nM, the IC50 ([2]; sgDDB1 #2 + DOX) was 2380 nM and 1630 nM and the IC50 ([2]; sgDDB1 #2 - DOX) was 1070 nM and 975 nM. The “log2FC CCNK” value [3] was -7.264, the “log2FC GNL1” value [3] was -6.619 and the “log2FC PM34” value [3] was -4.278. The “log2FC PMYT1” value [3] was -4.723, the “log2FC RIOK2” value [3] was -4.751 and the “CDK12-DDB1 interaction in live cells (NanoLuc luminescence)” value [4] was “efficiently induced an interaction between CDK12 and DDB1”. The “cyclin K protein level (immunoblot)” value ([1]; 3 primary AML specimens, 5 μM, 5 hours) was “strong depletion of cyclin K”, the “Mcl-1 protein and c-MYC level (immunoblot)” value ([1]; OCI-AML5, 5 μM for 4 h) was “substantial depletion” and the “RNA polymerase II phospho-ser2 level (immunoblot)” value [1] was “reduced levels of RNA polymerase II phospho-ser2”. The “cyclin K protein level (immunoblot)” value [1, 6] was “dose-dependent cyclin K depletion” and the solubility kinetic at 24 h [5] was 23 µM (≈ 8.84 µg/mL).
For `CN(C)C/C=C/C(=O)Nc1ccc(C(=O)N2CCC[C@@H](Nc3ncc(Cl)c(-c4c[nH]c5ccccc45)n3)C2)cc1` [THZ531], the “CDK12-DDB1 interaction in live cells (NanoLuc luminescence)” value [4] was “not detectable”.
